In PubChem BioAssay (NCI) one finds TGI and GI50 data, which are given here for 13 compounds.

Among the test systems are UACC-62 melanoma; UACC-257 melanoma; DU-145 prostate; SR leukemia; ACHN renal; SNB-19 CNS; LOX IMVI melanoma; TK-10 renal; KM12 colon; MOLT-4 leukemia.
Holding throughout (test): inhibition of tumour cell growth, NCI panel, 48 h

“And” between values parts separate entries of the source, which are not always exact repeats. Identical values can stand only once.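 Dose response: 5 concentrations. Exposure: 48 h. Format: 96-well plates. Endpoint: linear interpolation; highest concentration if not reached. At the GI50, growth is halved. TGI: concentration producing complete growth inhibition.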 Bounds are passed on as bounds.

With `c1ccc2c(c1)sc1c3cnccc3ccc21`, the TGI with UACC-62 melanoma, with UACC-257 melanoma, in the assay with DU-145 prostate, in the assay on SR leukemia, with ACHN renal and in the assay on SNB-19 CNS was above 100 µM in each case. Further, the TGI in the assay on LOX IMVI melanoma, in the assay with TK-10 renal, with KM12 colon and with MOLT-4 leukemia was above 100 µM in each case.

With `CC(=O)O[C@@]12CO[C@@H]1C[C@H](O)[C@@]1(C)C(=O)[C@H](O)C3=C(C)[C@@H](OC(=O)[C@H](O)[C@@H](NC(=O)OC(C)(C)C)c4ccccc4)C[C@@](O)([C@@H](OC(=O)c4ccccc4)[C@H]21)C3(C)C`, the GI50 in the assay with UACC-62 melanoma is 0.0141 µM and 0.112 µM; in the assay with UACC-257 melanoma, 0.31 µM; with SR leukemia, 0.0154 µM and 0.00407 µM; with ACHN renal, 0.156 µM; in the assay with SNB-19 CNS, 0.00175 µM; in the assay on LOX IMVI melanoma, 0.00308 µM and 0.00368 µM. For the same compound, the GI50 with TK-10 renal was 0.0327 µM and 0.00788 µM; with KM12 colon, 0.00708 µM and 0.0021 µM; in the assay with MOLT-4 leukemia, 0.0337 µM and 0.00877 µM. Besides, the TGI is 57.9 µM in the assay with UACC-257 melanoma; 78.2 µM in the assay on DU-145 prostate; 23.5 µM in the assay on SR leukemia; 67.1 µM in the assay with ACHN renal; 42.1 µM in the assay on LOX IMVI melanoma; above 62.2 µM with KM12 colon. For the same compound, in the assay on MOLT-4 leukemia, the TGI was 50.1 µM.

On to `Cn1cc(C2=C(c3cccc(N)c3)C(=O)NC2=O)c2ccccc21`, for which the GI50 was 12.6 µM in the assay with UACC-62 melanoma; above 25 µM with UACC-257 melanoma; 19 µM in the assay with DU-145 prostate; 9.03 µM with SR leukemia; 5.85 µM in the assay with ACHN renal; above 25 µM in the assay with SNB-19 CNS. Further, the GI50 was 8.76 µM in the assay on LOX IMVI melanoma, above 25 µM with TK-10 renal, 7.95 µM in the assay with KM12 colon and 14.1 µM in the assay on MOLT-4 leukemia. The TGI was above 25 µM in the assay on UACC-62 melanoma; above 25 µM in the assay with UACC-257 melanoma; above 25 µM with DU-145 prostate; 24.8 µM in the assay on SR leukemia; above 25 µM in the assay with ACHN renal; above 25 µM in the assay with SNB-19 CNS. In addition, the TGI with LOX IMVI melanoma is above 25 µM; in the assay on TK-10 renal, above 25 µM; with KM12 colon, above 20 µM; with MOLT-4 leukemia, above 25 µM.

As for `Nc1cc(C(=O)O)[nH]c(=O)n1`, the TGI with UACC-62 melanoma, in the assay on UACC-257 melanoma, in the assay on DU-145 prostate, in the assay on SR leukemia, in the assay with ACHN renal and with SNB-19 CNS was above 100 µM throughout. For the same compound, the TGI with LOX IMVI melanoma, in the assay on TK-10 renal, with KM12 colon and with MOLT-4 leukemia was above 100 µM in each case.

In the case of `COc1cccc(C2C3=C(COC3=O)N(CCO)c3cc(OC)ccc32)c1` (centres undefined), the GI50 was 0.0488 µM in the assay on UACC-62 melanoma; 0.036 µM in the assay with UACC-257 melanoma; 0.139 µM with DU-145 prostate; 0.0493 µM with SR leukemia; 0.23 µM in the assay on ACHN renal; 0.221 µM in the assay with SNB-19 CNS. Further, the results for the GI50 in the assay on LOX IMVI melanoma, in the assay with KM12 colon and with MOLT-4 leukemia were 0.227 µM, 0.0543 µM and 0.44 µM, respectively. Moreover, the TGI with UACC-62 melanoma was above 100 µM; with UACC-257 melanoma, above 100 µM; in the assay on DU-145 prostate, 1.91 µM; in the assay on SR leukemia, above 100 µM; in the assay on ACHN renal, above 100 µM; in the assay with SNB-19 CNS it was above 100 µM. Moreover, the TGI with LOX IMVI melanoma, in the assay on TK-10 renal and in the assay on MOLT-4 leukemia was above 100 µM each time.

Turning to `CC(C)Nc1ccc(Nc2ccccc2)cc1`, the GI50 is 11.6 µM in the assay on UACC-62 melanoma; 15.6 µM with UACC-257 melanoma; 26.2 µM in the assay with DU-145 prostate; 15.7 µM in the assay with SR leukemia; 3.31 µM in the assay on ACHN renal; 25.5 µM with SNB-19 CNS. The GI50 is 13.1 µM in the assay on LOX IMVI melanoma, 23.1 µM in the assay with TK-10 renal, 22.4 µM in the assay with KM12 colon and 21.2 µM with MOLT-4 leukemia. Also, the TGI is 51.6 µM with UACC-62 melanoma; 31.5 µM in the assay on UACC-257 melanoma; above 100 µM in the assay on DU-145 prostate; 49.3 µM with SR leukemia; 15 µM with ACHN renal; above 100 µM in the assay on SNB-19 CNS. The TGI in the assay with LOX IMVI melanoma was 29.1 µM; in the assay on TK-10 renal it was 57.4 µM; in the assay with KM12 colon, above 100 µM; in the assay with MOLT-4 leukemia it was above 100 µM.

Regarding `CC(C)(O)C#Cc1ccc(/C=C/C(=O)c2ccccc2)s1`, the GI50 is 13.7 µM in the assay with UACC-62 melanoma; 18.4 µM in the assay with UACC-257 melanoma; 14.9 µM in the assay with DU-145 prostate; 3.85 µM in the assay on SR leukemia; 17 µM with ACHN renal; 16.9 µM in the assay with SNB-19 CNS. For the same compound, the GI50 was 13.8 µM with LOX IMVI melanoma, 19.4 µM in the assay with TK-10 renal, 4.37 µM in the assay on KM12 colon and 16.8 µM with MOLT-4 leukemia. For the same compound, the TGI with UACC-62 melanoma was 26.6 µM; in the assay with UACC-257 melanoma, 32.4 µM; in the assay with DU-145 prostate, 28.1 µM; with SR leukemia, 13.8 µM; in the assay with ACHN renal, 30.7 µM; with SNB-19 CNS, 31.7 µM. Also, the TGI in the assay on LOX IMVI melanoma is 26.7 µM; in the assay with TK-10 renal it was 35.8 µM; in the assay with KM12 colon, 14.4 µM; in the assay with MOLT-4 leukemia it was 43.6 µM.

As for `N#Cc1cccc(OCc2nc(N)nc(N)c2-c2ccc(Cl)c(Cl)c2)c1`, the GI50 in the assay on UACC-62 melanoma was 0.442 µM; with UACC-257 melanoma, 2.92 µM; with DU-145 prostate it was 4.08 µM; in the assay with SR leukemia it was 2.39 µM; in the assay on ACHN renal, 0.896 µM; in the assay on SNB-19 CNS it was 4.28 µM. The GI50 was 0.575 µM with LOX IMVI melanoma, 9.32 µM with TK-10 renal, 2.96 µM in the assay on KM12 colon and 2.83 µM with MOLT-4 leukemia. Besides, the TGI in the assay with UACC-62 melanoma, in the assay with UACC-257 melanoma, in the assay on DU-145 prostate, in the assay with SR leukemia, in the assay with ACHN renal and with SNB-19 CNS was above 100 µM throughout. Further, the TGI in the assay with LOX IMVI melanoma was above 100 µM; with TK-10 renal, above 100 µM; in the assay on KM12 colon it was 82.4 µM; in the assay with MOLT-4 leukemia, above 100 µM.

With `CCCCCc1nc2c(c3c1CCCC3)CCCC2`, the GI50 was 12.1 µM with UACC-62 melanoma; 9.7 µM in the assay on UACC-257 melanoma; 23.2 µM with DU-145 prostate; 15.7 µM with SR leukemia; 11.5 µM in the assay on ACHN renal; 18.3 µM with SNB-19 CNS. The GI50 is 13.4 µM in the assay on LOX IMVI melanoma, 8.44 µM in the assay with TK-10 renal, 6.94 µM with KM12 colon and 8.88 µM in the assay on MOLT-4 leukemia. Besides, the TGI was 29.2 µM in the assay with UACC-62 melanoma; 31.6 µM with UACC-257 melanoma; above 100 µM with DU-145 prostate; 45.1 µM with SR leukemia; 30.5 µM in the assay on ACHN renal; above 100 µM in the assay with SNB-19 CNS. The TGI worked out at 27 µM with LOX IMVI melanoma, 22.4 µM with TK-10 renal, 33.7 µM in the assay with KM12 colon and 62.6 µM in the assay on MOLT-4 leukemia.

For `COc1ccc2c(c1)=C(C=C1C=CN(O)C=C1)C(=O)N=2`, the GI50 is 26.3 µM with UACC-62 melanoma; 44.7 µM with UACC-257 melanoma; 32.5 µM with DU-145 prostate; 18.2 µM in the assay with SR leukemia; 23.5 µM in the assay with ACHN renal; 10.6 µM in the assay with SNB-19 CNS. Also, the GI50 in the assay on LOX IMVI melanoma was 23.9 µM; in the assay with TK-10 renal, 36.3 µM; with KM12 colon, 17.4 µM; in the assay with MOLT-4 leukemia, 31.2 µM. The TGI is 86.1 µM in the assay with UACC-62 melanoma; above 100 µM in the assay with UACC-257 melanoma; above 100 µM in the assay with DU-145 prostate; above 100 µM in the assay with SR leukemia; above 100 µM in the assay on ACHN renal; 64.8 µM in the assay on SNB-19 CNS. Also, the TGI in the assay on LOX IMVI melanoma is above 67.3 µM; with TK-10 renal it was above 90.5 µM; in the assay on KM12 colon it was 41.3 µM; with MOLT-4 leukemia, above 100 µM.

On to `Cc1cc(Cl)cc2c(N=Nc3ccccc3[N+](=O)[O-])c(O)[nH]c12`, for which the TGI in the assay on UACC-62 melanoma was above 100 µM; in the assay with UACC-257 melanoma, above 100 µM; with DU-145 prostate, above 100 µM; in the assay with SR leukemia it was 82.3 µM; in the assay on ACHN renal it was above 100 µM; in the assay with SNB-19 CNS it was above 100 µM. The TGI with LOX IMVI melanoma, in the assay with TK-10 renal, in the assay with KM12 colon and in the assay on MOLT-4 leukemia was above 100 µM each time.

On to `Oc1ccc(CN2CCC(N3CCOCC3)CC2)c2cccnc12`, for which the GI50 with UACC-62 melanoma is 21.3 µM; in the assay on UACC-257 melanoma, 32.3 µM; in the assay on DU-145 prostate it was 31.3 µM; in the assay with SR leukemia, 34 µM; in the assay on ACHN renal, 25.1 µM; with SNB-19 CNS, 43.9 µM. Also, the GI50 in the assay on LOX IMVI melanoma is 29.9 µM; in the assay with TK-10 renal it was 62.4 µM; in the assay on KM12 colon, 46.9 µM; in the assay with MOLT-4 leukemia, 30.9 µM. Moreover, the TGI in the assay with UACC-62 melanoma was 50.2 µM; in the assay with UACC-257 melanoma, 76.5 µM; with DU-145 prostate, above 100 µM; in the assay with SR leukemia it was above 100 µM; in the assay on ACHN renal, above 100 µM; with SNB-19 CNS it was above 100 µM. In addition, the TGI with LOX IMVI melanoma, with TK-10 renal, in the assay with KM12 colon and with MOLT-4 leukemia was above 100 µM throughout.

For `C=C(C)C1Cc2c(cc(OC)c3c(=O)c4cccc(O)c4oc23)O1` (centres undefined), the TGI in the assay on UACC-62 melanoma is 31.9 µM; with UACC-257 melanoma, above 100 µM; in the assay with DU-145 prostate it was above 100 µM; with SR leukemia, above 100 µM; with ACHN renal, 32.1 µM; in the assay on SNB-19 CNS it was 98.4 µM. In addition, the TGI is 29.6 µM in the assay on LOX IMVI melanoma, 46.9 µM in the assay on TK-10 renal, above 100 µM in the assay on KM12 colon and above 100 µM with MOLT-4 leukemia.
